Laboratory results as given in ChEMBL document CHEMBL3045725, “Synthesis and antimicrobial activity of some (3-phenyl-5-(1-phenyl-3-aryl-1H-pyrazol-4-yl)-4,5-dihydro-1H-pyrazol-1-yl)(pyridin-4-yl)methanones: new derivatives of 1,3,5-trisubstituted pyrazolines” (2013).
Converted amounts (≈) assume the structure as drawn.

What was measured:
Assay type in all cases: functional
Aspergillus niger = assay: Antifungal activity against Aspergillus niger assessed as growth inhibition after 24 hr by NCCLS broth microdilution method
Escherichia coli = assay: Antibacterial activity against Escherichia coli assessed as growth inhibition after 24 hr by NCCLS broth microdilution method
Pseudomonas aeruginosa = assay: Antibacterial activity against Pseudomonas aeruginosa assessed as growth inhibition after 24 hr by NCCLS broth microdilution method
Staphylococcus aureus = assay: Antibacterial activity against Staphylococcus aureus assessed as growth inhibition after 24 hr by NCCLS broth microdilution method
Bacillus pumilus = assay: Antibacterial activity against Bacillus pumilus assessed as growth inhibition after 24 hr by NCCLS broth microdilution method
Candida albicans = assay: Antifungal activity against Candida albicans assessed as growth inhibition after 24 hr by NCCLS broth microdilution method
Aspergillus flavus = assay: Antifungal activity against Aspergillus flavus assessed as growth inhibition after 24 hr by NCCLS broth microdilution method
Bacillus subtilis = assay: Antibacterial activity against Bacillus subtilis assessed as growth inhibition after 24 hr by NCCLS broth microdilution method
Candida tropicalis = assay: Antifungal activity against Candida tropicalis assessed as growth inhibition after 24 hr by NCCLS broth microdilution method

| SMILES | MIC (Aspergillus niger) [µg/mL] | MIC (Escherichia coli) [µg/mL] | MIC (Pseudomonas aeruginosa) [µg/mL] | MIC (Staphylococcus aureus) [µg/mL] | MIC (Bacillus pumilus) [µg/mL] | MIC (Candida albicans) [µg/mL] | MIC (Aspergillus flavus) [µg/mL] | MIC (Bacillus subtilis) [µg/mL] | MIC (Candida tropicalis) [µg/mL] |
| --- | --- | --- | --- | --- | --- | --- | --- | --- | --- |
| COc1ccc(-c2nn(-c3ccccc3)cc2C2CC(c3ccccc3)=NN2C(=O)c2ccncc2)cc1 (racemic) | 50 (≈ 100 µM) | 6.25 (≈ 12.5 µM) | 12.5 (≈ 25 µM) | 6.25 (≈ 12.5 µM) | 6.25 (≈ 12.5 µM) | 12.5 (≈ 25 µM) | 50 (≈ 100 µM) | 6.25 (≈ 12.5 µM) | 12.5 (≈ 25 µM) |
| COc1ccccc1-c1nn(-c2ccccc2)cc1C1CC(c2ccccc2)=NN1C(=O)c1ccncc1 (racemic) | 50 (≈ 100 µM) | 6.25 (≈ 12.5 µM) | 6.25 (≈ 12.5 µM) | 6.25 (≈ 12.5 µM) | 6.25 (≈ 12.5 µM) | 6.25 (≈ 12.5 µM) | 50 (≈ 100 µM) | 6.25 (≈ 12.5 µM) | 6.25 (≈ 12.5 µM) |
| Cc1ccc(-c2nn(-c3ccccc3)cc2C2CC(c3ccccc3)=NN2C(=O)c2ccncc2)cc1 (racemic) | 100 (≈ 207 µM) | 12.5 (≈ 25.8 µM) | 25 (≈ 51.7 µM) | 6.25 (≈ 12.9 µM) | 12.5 (≈ 25.8 µM) | 25 (≈ 51.7 µM) | 100 (≈ 207 µM) | 12.5 (≈ 25.8 µM) | 50 (≈ 103 µM) |
| O=C(c1ccncc1)N1N=C(c2ccccc2)CC1c1cn(-c2ccccc2)nc1-c1ccc(F)cc1 (racemic) | 200 (≈ 410 µM) | 12.5 (≈ 25.6 µM) | 12.5 (≈ 25.6 µM) | 6.25 (≈ 12.8 µM) | 25 (≈ 51.3 µM) | 50 (≈ 103 µM) | 200 (≈ 410 µM) | 12.5 (≈ 25.6 µM) | 50 (≈ 103 µM) |
| O=C(c1ccncc1)N1N=C(c2ccccc2)CC1c1cn(-c2ccccc2)nc1-c1ccc(Cl)cc1 (racemic) | > 200 | 25 (≈ 49.6 µM) | 25 (≈ 49.6 µM) | 12.5 (≈ 24.8 µM) | 25 (≈ 49.6 µM) | 100 (≈ 198 µM) | 200 (≈ 397 µM) | 25 (≈ 49.6 µM) | 100 (≈ 198 µM) |
| O=C(c1ccncc1)N1N=C(c2ccccc2)CC1c1cn(-c2ccccc2)nc1-c1ccc(Br)cc1 (racemic) | > 200 | 50 (≈ 91.2 µM) | 50 (≈ 91.2 µM) | 12.5 (≈ 22.8 µM) | 25 (≈ 45.6 µM) | 50 (≈ 91.2 µM) | 200 (≈ 365 µM) | 25 (≈ 45.6 µM) | 100 (≈ 182 µM) |
| O=C(c1ccncc1)N1N=C(c2ccccc2)CC1c1cn(-c2ccccc2)nc1-c1ccccc1 (racemic) | 100 (≈ 213 µM) | 50 (≈ 106 µM) | 50 (≈ 106 µM) | 25 (≈ 53.2 µM) | 50 (≈ 106 µM) | 200 (≈ 426 µM) | > 200 | 50 (≈ 106 µM) | 200 (≈ 426 µM) |
| O=C(O)c1cn(C2CC2)c2cc(N3CCNCC3)c(F)cc2c1=O [CIPROFLOXACIN] | – | 3.12 (≈ 9.43 µM) | 3.12 (≈ 9.43 µM) | 3.12 (≈ 9.43 µM) | 3.12 (≈ 9.43 µM) | – | – | 3.12 (≈ 9.43 µM) | – |
| OC(Cn1cncn1)(Cn1cncn1)c1ccc(F)cc1F [FLUCONAZOLE] | 12.5 (≈ 40.8 µM) | – | – | – | – | 3.12 (≈ 10.2 µM) | 12.5 (≈ 40.8 µM) | – | 6.25 (≈ 20.4 µM) |
